According to patent US11090319B2, “Therapeutic uses of pharmaceutical compositions comprising cyclic boronic acid ester derivatives” (Melinta Subsidiary Corp., priority 2010, dated 2021):

Tests used:
Assay in all cases: Ceftazidime MIC with fixed concentration of BLI
Type in all cases: cell-based
[1] = system: AB1054 Acinetobacter baumannii OXA-23; conditions: derivative at 10 μg/mL; AB1054 OXA-23
Protocol: (§1) Next, ceftazidime potentiation activity of several cyclic boronic acid ester derivatives was tested using a larger panel of strains expressing β-lactamase hydrolyzing enzymes. Ceftazidime MICs were determined alone and in the presence of fixed concentrations of various cyclic boronic acid ester derivatives.

[2] = system: AB1057 Acinetobacter baumannii OXA-58; conditions: derivative at 10 μg/mL; AB1057 OXA-58
Protocol: as §1

[3] = system: CF1000 Citrobacter freundii Hyper AmpC expression; conditions: derivative at 10 μg/mL
Protocol: as §1

[4] = system: EC1004 Escherichia coli CMY-2; conditions: derivative at 10 μg/mL; EC1004 CMY-2
Protocol: as §1

[5] = system: EC1006 Escherichia coli FOX-5; conditions: derivative at 10 μg/mL; EC1006 FOX-5
Protocol: as §1

[6] = system: EC1007 Escherichia coli KPC-3; conditions: derivative at 10 μg/mL; EC1007 KPC-3
Protocol: as §1

[7] = system: EC1009 Escherichia coli TEM-10; conditions: derivative at 10 μg/mL; EC1009 TEM-10
Protocol: as §1

[8] = system: EC1010 Escherichia coli CMY-6; conditions: derivative at 10 μg/mL; EC1010 CMY-6
Protocol: as §1

[9] = system: EC1011 Escherichia coli TEM-26; conditions: derivative at 10 μg/mL; EC1011 TEM-26
Protocol: as §1

[10] = system: EC1012 Escherichia coli TEM-12; conditions: derivative at 10 μg/mL; EC1012 TEM-12
Protocol: as §1

[11] = system: EC1014 Escherichia coli DHA-1; conditions: derivative at 10 μg/mL; EC1014 DHA-1
Protocol: as §1

[12] = system: ECL1002 Enterobacter cloacae Hyper AmpC expression; conditions: derivative at 10 μg/mL
Protocol: as §1

[13] = system: KP1004 Klebsiella pneumoniae KPC-2; conditions: derivative at 10 μg/mL; KP1004 KPC-2
Protocol: as §1

[14] = system: KP1005 Klebsiella pneumoniae CTX-M-14; conditions: derivative at 10 μg/mL; KP1005 CTX-M-14
Protocol: as §1

[15] = system: KP1007 Klebsiella pneumoniae OXA-10; conditions: derivative at 10 μg/mL; KP1007 OXA-10
Protocol: as §1

[16] = system: KP1008 Klebsiella pneumoniae KPC-2; conditions: derivative at 10 μg/mL; KP1008 KPC-2
Protocol: as §1

[17] = system: KP1009 Klebsiella pneumoniae CTX-M-15; conditions: derivative at 10 μg/mL; KP1009 CTX-M-15
Protocol: as §1

[18] = system: KP1010 Klebsiella pneumoniae SHV-12; conditions: derivative at 10 μg/mL; KP1010 SHV-12
Protocol: as §1

[19] = system: KX1000 Klebsiella oxytoca OXA-2; conditions: derivative at 10 μg/mL; KX1000 OXA-2
Protocol: as §1

[20] = system: PAM2005 Pseudomonas aeruginosa ampC; conditions: derivative at 10 μg/mL
Protocol: as §1

[21] = system: PAM2035 Pseudomonas aeruginosa ampC mexA:tet; conditions: derivative at 10 μg/mL
Protocol: as §1

[22] = system: ec300 Escherichia coli TEM-3; conditions: derivative at 10 μg/mL; ec300 TEM-3
Protocol: as §1

[23] = system: ec301 Escherichia coli TEM-6; conditions: derivative at 10 μg/mL; ec301 TEM-6
Protocol: as §1

[24] = system: ec302 Escherichia coli TEM-10; conditions: derivative at 10 μg/mL; ec302 TEM-10
Protocol: as §1

[25] = system: ec303 Escherichia coli TEM-12; conditions: derivative at 10 μg/mL; ec303 TEM-12
Protocol: as §1

[26] = system: ec306 Escherichia coli SHV-2; conditions: derivative at 10 μg/mL; ec306 SHV-2
Protocol: as §1

[27] = system: ec307 Escherichia coli SHV-4; conditions: derivative at 10 μg/mL; ec307 SHV-4
Protocol: as §1

[28] = system: ec308 Escherichia coli SHV-5; conditions: derivative at 10 μg/mL; ec308 SHV-5
Protocol: as §1

[29] = system: ec309 Escherichia coli MIR-1; conditions: derivative at 10 μg/mL; ec309 MIR-1
Protocol: as §1

[30] = system: ec310 Escherichia coli ACT-1; conditions: derivative at 10 μg/mL; ec310 ACT-1
Protocol: as §1

[31] = system: pa1063 Pseudomonas aeruginosa GES-1; conditions: derivative at 10 μg/mL; pa1063 GES-1
Protocol: as §1

Row | SMILES | Ceftazidime MIC with cyclic boronic acid ester derivative [1] | Ceftazidime MIC with cyclic boronic acid ester derivative [2] | Ceftazidime MIC with cyclic boronic acid ester derivative [3] | Ceftazidime MIC with cyclic boronic acid ester derivative [4] | Ceftazidime MIC with cyclic boronic acid ester derivative [5] | Ceftazidime MIC with cyclic boronic acid ester derivative [6] | Ceftazidime MIC with cyclic boronic acid ester derivative [7] | Ceftazidime MIC with cyclic boronic acid ester derivative [8] | Ceftazidime MIC with cyclic boronic acid ester derivative [9] | Ceftazidime MIC with cyclic boronic acid ester derivative [10] | Ceftazidime MIC with cyclic boronic acid ester derivative [11] | Ceftazidime MIC with cyclic boronic acid ester derivative [12] | Ceftazidime MIC with cyclic boronic acid ester derivative [13] | Ceftazidime MIC with cyclic boronic acid ester derivative [14] | Ceftazidime MIC with cyclic boronic acid ester derivative [15] | Ceftazidime MIC with cyclic boronic acid ester derivative [16] | Ceftazidime MIC with cyclic boronic acid ester derivative [17] | Ceftazidime MIC with cyclic boronic acid ester derivative [18] | Ceftazidime MIC with cyclic boronic acid ester derivative [19] | Ceftazidime MIC with cyclic boronic acid ester derivative [20] | also measured
1 | CC(=O)N[C@H]1CCC(CC(=O)O)OB1O (stereo partly drawn) [Compound 3, 2-((3R)-3-acetamido-2-hydroxy-1,2-oxaborinan-6-yl)acetic acid] | Z (MIC of greater than 8 μg/mL) | Z (MIC of greater than 8 μg/mL) | Z (MIC of greater than 8 μg/mL) | Y (MIC of greater than 1 μg/mL to 8 μg/mL) | Y (MIC of greater than 1 μg/mL to 8 μg/mL) | X (MIC of 1 μg/mL or less) | Z (MIC of greater than 8 μg/mL) | Z (MIC of greater than 8 μg/mL) | Z (MIC of greater than 8 μg/mL) | Z (MIC of greater than 8 μg/mL) | Y (MIC of greater than 1 μg/mL to 8 μg/mL) | Z (MIC of greater than 8 μg/mL) | Y (MIC of greater than 1 μg/mL to 8 μg/mL) | Z (MIC of greater than 8 μg/mL) | Z (MIC of greater than 8 μg/mL) | X (MIC of 1 μg/mL or less) | Z (MIC of greater than 8 μg/mL) | Z (MIC of greater than 8 μg/mL) | Z (MIC of greater than 8 μg/mL) | Z (MIC of greater than 8 μg/mL) | Ceftazidime MIC with cyclic boronic acid ester derivative [21]: Z (MIC of greater than 8 μg/mL); Ceftazidime MIC with cyclic boronic acid ester derivative [22]: Z (MIC of greater than 8 μg/mL); Ceftazidime MIC with cyclic boronic acid ester derivative [23]: Z (MIC of greater than 8 μg/mL); Ceftazidime MIC with cyclic boronic acid ester derivative [24]: Z (MIC of greater than 8 μg/mL); Ceftazidime MIC with cyclic boronic acid ester derivative [25]: Z (MIC of greater than 8 μg/mL); Ceftazidime MIC with cyclic boronic acid ester derivative [26]: Z (MIC of greater than 8 μg/mL); Ceftazidime MIC with cyclic boronic acid ester derivative [27]: Z (MIC of greater than 8 μg/mL); Ceftazidime MIC with cyclic boronic acid ester derivative [28]: Z (MIC of greater than 8 μg/mL); Ceftazidime MIC with cyclic boronic acid ester derivative [29]: Y (MIC of greater than 1 μg/mL to 8 μg/mL); Ceftazidime MIC with cyclic boronic acid ester derivative [30]: Y (MIC of greater than 1 μg/mL to 8 μg/mL); Ceftazidime MIC with cyclic boronic acid ester derivative [31]: Z (MIC of greater than 8 μg/mL)
2 | Cl.N[C@H]1CCC(CC(=O)O)OB1O (stereo partly drawn) [Compound 7, 2-((3R)-3-amino-2-hydroxy-1,2-oxaborinan-6-yl)acetic acid hydrochloride] | Z (MIC of greater than 8 μg/mL) | Z (MIC of greater than 8 μg/mL) | Z (MIC of greater than 8 μg/mL) | Z (MIC of greater than 8 μg/mL) | Z (MIC of greater than 8 μg/mL) | Z (MIC of greater than 8 μg/mL) | Z (MIC of greater than 8 μg/mL) | Z (MIC of greater than 8 μg/mL) | Z (MIC of greater than 8 μg/mL) | Z (MIC of greater than 8 μg/mL) | Z (MIC of greater than 8 μg/mL) | Z (MIC of greater than 8 μg/mL) | Z (MIC of greater than 8 μg/mL) | Z (MIC of greater than 8 μg/mL) | Z (MIC of greater than 8 μg/mL) | Z (MIC of greater than 8 μg/mL) | Z (MIC of greater than 8 μg/mL) | Z (MIC of greater than 8 μg/mL) | Y (MIC of greater than 1 μg/mL to 8 μg/mL) | Z (MIC of greater than 8 μg/mL) | Ceftazidime MIC with cyclic boronic acid ester derivative [21]: Z (MIC of greater than 8 μg/mL); Ceftazidime MIC with cyclic boronic acid ester derivative [22]: Z (MIC of greater than 8 μg/mL); Ceftazidime MIC with cyclic boronic acid ester derivative [23]: Z (MIC of greater than 8 μg/mL); Ceftazidime MIC with cyclic boronic acid ester derivative [24]: Z (MIC of greater than 8 μg/mL); Ceftazidime MIC with cyclic boronic acid ester derivative [25]: Z (MIC of greater than 8 μg/mL); Ceftazidime MIC with cyclic boronic acid ester derivative [26]: Z (MIC of greater than 8 μg/mL); Ceftazidime MIC with cyclic boronic acid ester derivative [27]: Z (MIC of greater than 8 μg/mL); Ceftazidime MIC with cyclic boronic acid ester derivative [28]: Z (MIC of greater than 8 μg/mL); Ceftazidime MIC with cyclic boronic acid ester derivative [29]: Z (MIC of greater than 8 μg/mL); Ceftazidime MIC with cyclic boronic acid ester derivative [30]: Z (MIC of greater than 8 μg/mL); Ceftazidime MIC with cyclic boronic acid ester derivative [31]: Z (MIC of greater than 8 μg/mL)
